Holding throughout (type): ADME
Data set [1] is described as follows: Activity of CYP3A4/CYP1A2 in human liver microsomes assessed as intrinsic clearance for enzyme-mediated (R)-1-(4-(4-fluoro-2-(hydroxymethyl)-1H-indol-5-yloxy)-5-methylpyrrolo[1,2-f][1,2,4]triazin-6-yloxy)propan-2-ol formation per mg protein in presence of NADPH. In general terms: Liver microsomes are a subcellular fraction often used to study metabolism.
The target of another data set is T1, Cytochrome P450 1A2 (Homo sapiens, UniProt P05177).
T1 sequence (P05177 whole entry): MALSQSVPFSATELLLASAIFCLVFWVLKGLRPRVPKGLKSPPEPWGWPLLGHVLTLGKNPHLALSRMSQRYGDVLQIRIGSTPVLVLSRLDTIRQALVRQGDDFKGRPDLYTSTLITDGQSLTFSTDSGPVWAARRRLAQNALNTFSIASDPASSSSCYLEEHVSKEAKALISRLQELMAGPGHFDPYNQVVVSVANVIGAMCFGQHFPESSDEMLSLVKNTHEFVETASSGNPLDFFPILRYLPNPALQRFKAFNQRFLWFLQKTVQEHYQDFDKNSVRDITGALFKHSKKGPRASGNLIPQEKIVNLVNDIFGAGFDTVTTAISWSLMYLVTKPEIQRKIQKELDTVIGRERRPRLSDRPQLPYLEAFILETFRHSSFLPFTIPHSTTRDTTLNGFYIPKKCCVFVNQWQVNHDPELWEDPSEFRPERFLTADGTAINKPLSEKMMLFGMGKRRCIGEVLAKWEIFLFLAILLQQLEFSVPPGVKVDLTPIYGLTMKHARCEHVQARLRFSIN
The data set can be described thus: Drug metabolism assessed as human CYP1A2-mediated (R)-1-(4-(4-fluoro-2-(hydroxymethyl)-1H-indol-5-yloxy)-5-methylpyrrolo[1,2-f][1,2,4]triazin-6-yloxy)propan-2-ol formation at 2 and 20 uM for 20 mins by LC/MS analysis in presence of NADPH. The conditions noted are these: recombinant enzyme.

Data set [2] addresses T2, Cytochrome P450 2A6 (Homo sapiens, UniProt P11509).
T2 sequence (P11509 whole entry): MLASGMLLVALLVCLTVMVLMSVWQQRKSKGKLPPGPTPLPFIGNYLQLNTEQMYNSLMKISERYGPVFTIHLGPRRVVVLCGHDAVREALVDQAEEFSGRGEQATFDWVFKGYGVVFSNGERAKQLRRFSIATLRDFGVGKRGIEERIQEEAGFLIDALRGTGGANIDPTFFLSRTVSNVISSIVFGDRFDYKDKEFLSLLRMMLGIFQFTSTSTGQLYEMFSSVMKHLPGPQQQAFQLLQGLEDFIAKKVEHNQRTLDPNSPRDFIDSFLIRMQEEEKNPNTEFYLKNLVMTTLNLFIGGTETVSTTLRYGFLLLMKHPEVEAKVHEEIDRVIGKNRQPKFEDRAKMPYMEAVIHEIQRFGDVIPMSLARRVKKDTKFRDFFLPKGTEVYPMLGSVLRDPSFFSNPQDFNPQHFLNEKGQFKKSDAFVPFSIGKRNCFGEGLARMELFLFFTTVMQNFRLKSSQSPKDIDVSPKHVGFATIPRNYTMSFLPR
The data set can be described thus: Drug metabolism assessed as human CYP2A6-mediated (R)-1-(4-(4-fluoro-2-(hydroxymethyl)-1H-indol-5-yloxy)-5-methylpyrrolo[1,2-f][1,2,4]triazin-6-yloxy)propan-2-ol formation at 2 and 20 uM for 20 mins by LC/MS analysis in presence of NADPH. The conditions noted are these: recombinant enzyme.

Another data set addresses Cytochrome P450 2E1 (Homo sapiens, UniProt P05181). The data set can be described thus: Drug metabolism in human liver microsomes assessed as monoclonal antibody-mediated inhibition of CYP2E1-mediated (R)-1-(4-(4-fluoro-2-(hydroxymethyl)-1H-indol-5-yloxy)-5-methylpyrrolo[1,2-f][1,2,4]triazin-6-yloxy)propan-2-ol formation at 2 and 20 uM for 30 mins by LC/MS analysis. The conditions noted are these: 0.5 h.

Data set [3] has as its target T3, Cytochrome P450 3A4 (Homo sapiens, UniProt P08684). The data set can be described thus: Activity of human CYP3A4 assessed as intrinsic clearance for enzyme-mediated (R)-1-(4-(4-fluoro-2-(hydroxymethyl)-1H-indol-5-yloxy)-5-methylpyrrolo[1,2-f][1,2,4]triazin-6-yloxy)propan-2-ol formation per picomole enzyme in presence of NADPH.
The test system of another data set is Liver microsome. The data set can be described thus: Drug metabolism in human liver microsomes assessed as (R)-1-(4-(4-fluoro-2-(hydroxymethyl)-1H-indol-5-yloxy)-5-methylpyrrolo[1,2-f][1,2,4]triazin-6-yloxy)propan-2-ol formation at 2 and 20 uM for 30 mins by LC/MS analysis in presence of antibody for CYP3A4/5. The conditions noted are these: 0.5 h.
Data set [4] deals with T3, Cytochrome P450 3A4. The data set can be described thus: Drug metabolism assessed as human CYP3A4-mediated (R)-1-(4-(4-fluoro-2-(hydroxymethyl)-1H-indol-5-yloxy)-5-methylpyrrolo[1,2-f][1,2,4]triazin-6-yloxy)propan-2-ol formation at 2 and 20 uM for 20 mins by LC/MS analysis in presence of NADPH. As to conditions: recombinant enzyme.
The target in data set [5] is T2, Cytochrome P450 2A6. The data set is described as follows: Drug metabolism in human liver microsomes assessed as 2 uM tranylcypromine-mediated inhibition of CYP2A6-mediated (R)-1-(4-(4-fluoro-2-(hydroxymethyl)-1H-indol-5-yloxy)-5-methylpyrrolo[1,2-f][1,2,4]triazin-6-yloxy)propan-2-ol formation at 2 and 20 uM for 30 mins by LC/MS analysis. As to conditions: 0.5 h.

Data set [6] has as its target T2, Cytochrome P450 2A6. The data set is described as follows: Drug metabolism in human liver microsomes assessed as monoclonal antibody-mediated inhibition of CYP2A6-mediated (R)-1-(4-(4-fluoro-2-(hydroxymethyl)-1H-indol-5-yloxy)-5-methylpyrrolo[1,2-f][1,2,4]triazin-6-yloxy)propan-2-ol formation at 2 and 20 uM for 30 mins by LC/MS analysis. The conditions noted are these: 0.5 h.

The next data set deals with T4, Cytochrome P450 2C8 (Homo sapiens, UniProt P10632).
T4 sequence (P10632 whole entry): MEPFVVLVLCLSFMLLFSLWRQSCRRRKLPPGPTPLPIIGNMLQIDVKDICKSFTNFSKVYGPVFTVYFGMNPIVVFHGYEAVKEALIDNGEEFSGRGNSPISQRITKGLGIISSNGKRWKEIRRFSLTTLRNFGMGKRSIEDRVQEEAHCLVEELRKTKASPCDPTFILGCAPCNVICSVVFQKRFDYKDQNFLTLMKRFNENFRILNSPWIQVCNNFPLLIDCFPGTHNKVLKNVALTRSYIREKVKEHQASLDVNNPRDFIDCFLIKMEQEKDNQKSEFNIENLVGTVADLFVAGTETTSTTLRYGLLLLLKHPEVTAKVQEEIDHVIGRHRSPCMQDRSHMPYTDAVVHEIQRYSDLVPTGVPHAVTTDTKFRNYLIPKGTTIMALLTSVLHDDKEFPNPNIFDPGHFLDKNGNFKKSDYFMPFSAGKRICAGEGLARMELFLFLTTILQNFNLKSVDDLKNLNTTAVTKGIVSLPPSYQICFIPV
The data set can be described thus: Drug metabolism in human liver microsomes assessed as 3 uM montekulast-mediated inhibition of CYP2C8-mediated (R)-1-(4-(4-fluoro-2-(hydroxymethyl)-1H-indol-5-yloxy)-5-methylpyrrolo[1,2-f][1,2,4]triazin-6-yloxy)propan-2-ol formation at 2 and 20 uM for 30 mins by LC/MS analysis. As to conditions: 0.5 h.

The next data set has as its target Cytochrome P450 1B1 (Homo sapiens, UniProt Q16678). The data set can be described thus: Drug metabolism assessed as human CYP1B1-mediated (R)-1-(4-(4-fluoro-2-(hydroxymethyl)-1H-indol-5-yloxy)-5-methylpyrrolo[1,2-f][1,2,4]triazin-6-yloxy)propan-2-ol formation at 2 and 20 uM for 20 mins by LC/MS analysis in presence of NADPH. The conditions noted are these: recombinant enzyme.

T3 sequence (P08684 whole entry): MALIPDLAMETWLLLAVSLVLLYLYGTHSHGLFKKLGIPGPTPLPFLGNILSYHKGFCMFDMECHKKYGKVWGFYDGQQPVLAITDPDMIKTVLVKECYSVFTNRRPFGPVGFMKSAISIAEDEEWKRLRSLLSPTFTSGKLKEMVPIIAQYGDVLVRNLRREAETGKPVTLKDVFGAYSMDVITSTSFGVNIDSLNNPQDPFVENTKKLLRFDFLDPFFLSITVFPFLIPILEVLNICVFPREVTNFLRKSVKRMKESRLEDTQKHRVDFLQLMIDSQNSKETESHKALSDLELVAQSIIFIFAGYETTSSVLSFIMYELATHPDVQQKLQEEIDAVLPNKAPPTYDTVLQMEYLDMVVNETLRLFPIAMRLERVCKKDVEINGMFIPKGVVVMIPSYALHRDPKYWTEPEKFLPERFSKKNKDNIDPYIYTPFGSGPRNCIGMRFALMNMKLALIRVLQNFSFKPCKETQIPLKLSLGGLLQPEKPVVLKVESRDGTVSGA
Sequence of Cytochrome P450 2E1 (P05181 whole entry): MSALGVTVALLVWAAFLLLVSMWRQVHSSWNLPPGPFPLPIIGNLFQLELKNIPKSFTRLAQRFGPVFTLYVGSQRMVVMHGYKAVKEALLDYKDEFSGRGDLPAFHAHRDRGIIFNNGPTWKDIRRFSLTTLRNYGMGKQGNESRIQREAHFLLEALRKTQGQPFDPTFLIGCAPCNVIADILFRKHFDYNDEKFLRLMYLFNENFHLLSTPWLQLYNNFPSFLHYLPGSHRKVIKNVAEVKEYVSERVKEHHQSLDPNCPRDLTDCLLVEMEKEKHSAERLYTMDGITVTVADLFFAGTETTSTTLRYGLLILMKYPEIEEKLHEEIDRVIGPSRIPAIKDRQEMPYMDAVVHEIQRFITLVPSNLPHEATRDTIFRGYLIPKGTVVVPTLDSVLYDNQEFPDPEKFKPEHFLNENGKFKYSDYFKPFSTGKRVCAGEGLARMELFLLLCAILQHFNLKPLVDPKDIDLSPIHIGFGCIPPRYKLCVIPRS
Sequence of Cytochrome P450 1B1 (Q16678 whole entry): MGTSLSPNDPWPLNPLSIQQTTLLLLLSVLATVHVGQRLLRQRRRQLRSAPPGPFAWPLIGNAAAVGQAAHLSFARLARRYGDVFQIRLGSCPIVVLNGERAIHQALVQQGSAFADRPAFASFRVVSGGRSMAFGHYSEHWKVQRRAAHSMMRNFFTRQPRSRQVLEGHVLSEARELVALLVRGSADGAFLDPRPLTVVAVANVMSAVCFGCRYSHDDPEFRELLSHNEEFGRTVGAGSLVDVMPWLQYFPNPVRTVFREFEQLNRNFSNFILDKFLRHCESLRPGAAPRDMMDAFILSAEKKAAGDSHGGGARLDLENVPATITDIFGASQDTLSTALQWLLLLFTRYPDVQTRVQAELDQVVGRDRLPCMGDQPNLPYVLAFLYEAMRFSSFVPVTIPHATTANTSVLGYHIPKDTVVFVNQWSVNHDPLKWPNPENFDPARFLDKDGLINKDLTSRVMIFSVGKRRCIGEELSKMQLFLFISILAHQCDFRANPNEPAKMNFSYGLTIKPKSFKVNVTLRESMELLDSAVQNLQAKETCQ

For `Cc1cc2c(F)c(Oc3ncnn4cc(OC[C@@H](C)O)c(C)c34)ccc2[nH]1` [BRIVANIB], in data set [1], the CLint worked out at 3.1 µL/min/mg. Further, the Drug metabolism entry at Cytochrome P450 1A2 is listed as “metabolite_detected”; at Cytochrome P450 2A6 [2] it was “metabolite_detected”; at Cytochrome P450 2E1, “metabolite_detected”; with Liver microsome, “metabolite_not_detected”; at Cytochrome P450 3A4 [4] it was “metabolite_detected”; on Cytochrome P450 2A6 [5], “metabolite_detected”. Besides, the Drug metabolism entry on Cytochrome P450 2A6 [6], on Cytochrome P450 2C8 and on Cytochrome P450 1B1 was “metabolite_detected” in each case. Further, the CL at Cytochrome P450 3A4 [3] came to 0.016 µL/min.

Values taken from ChEMBL document CHEMBL3526086, “Identification of the oxidative and conjugative enzymes involved in the biotransformation of brivanib” (Drug Metab Dispos, 2012).
